In patent EP2332529A1, “Substituted aromatic diamines as ligands of vesicular glutamate transporter 1 and 2 (vGLUT1 and vGLUT2)” (Grünenthal GmbH, priority 2009, dated 2011):
Read-outs that look alike come from different tables or passages of the source.

Experiments:
[1] = system: vGLUT1- bzw. vGLUT2-Transporter; assay: Glutamate uptake in rat crude synaptic vesicles ([3H]-glutamate); format: biochemical, Ratte; details: for vGLUT (Ratte), Hemmung [%]: test concentration not given
Text: Die agonistische bzw. antagonistische Wirkung der zu untersuchenden Verbindungen am vGLUT1- bzw. vGLUT2-Transporter der Spezies Ratte kann mit folgendem Assay bestimmt werden.
Glutamat-Uptake in Rattenvesikel ('rat crude synaptic vesicles')
Die Präparation von Vesikeln wurde aus Rattengehirn-Homogenaten (männlichen Ratten, Stamm Wistar SPF, 150-250 g Gewicht) durchgeführt gemäß Roseth et al. (1995) J. Neurochem. 65: 96-103, der sich auf Whittaker et al. (1964) Biochem J. 90, 293-303 und Fykse und Fonnum (1988) J. Neurochem. 50: 1237-1242 bezieht.
Hierzu wurden frisch entnommene Rattengehirne in 0,32 M Saccharose, 10 mM TRIS-maleat, 1 mM EGTA, pH 7,4 (10 ml/g Frischgewicht) mit einem Potter-Homogenisator (Fa. Braun/Melsungen; 5 Kolbenhübe bei 800 Upm) unter Eiskühlung homogenisiert und anschließend für 10 Minuten bei 3.000 g und 4°C zentrifugiert. Der resultierende Überstand wurde bei 20.000 g für 30 Minuten bei 4°C zentrifugiert. Das entstandene Pellet wurde dann im Verhältnis 1:3 mit 10 mM TRIS-maleate, 0,1 mM EGTA, pH 7,4 osmotisch geschockt und die Suspension bei 17000g für 30 min (4°C) zentrifugiert. Die im Überstand verbliebenen Vesikel wurden nun auf einen Dichtegradienten aus 0,6 M Saccharose in 10 mM TRIS-maleat, 1 mM EGTA, pH 7.4 und 0.4 M Saccharose in 10 mM TRIS-maleat, 1 mM EGTA, pH 7.4 geschichtet. Eine Ultrazentrifugation der Gradienten im Ausschwingrotor bei 65000g für 2h (4°C) schloss sich an. Die Vesikel-Fraktion wurde von der 0.4 M Saccharose-Bande isoliert und im Uptake-Versuch eingesetzt.
Die Substratlösung für den Uptake von [^3H]-Glutamat bestand aus ATP (neutralisiert mit Trisma base; 2 mM im Endansatz), Glutamat (0.5 mM im Endansatz) und ^3H-Glutamat (0.5 µCi im Endansatz). In 14 ml-Reagiergefäßen (Sarstedt, Artikel-Nr.: 798438) wurden jeweils 0,3 ml Gesamtvolumina (n=2/Probe) pipettiert in der folgenden Reihenfolge: 1.) 165 µl Inkubationspuffer (110 mM Kaliumtartrat, 10 mM TRIS-maleat, pH 7,4, 4 mM MgCl2), 2.) 10 µl Testsubstanz oder Vehikelkontrolle oder blank, 3.) 100 µl synaptische Vesikel. Es schloss sich eine Vorinkubation von 15 min bei 30°C an (nur blank-Ansätze befanden sich hierbei auf Eis). Danach wurde der Uptake durch Zugabe von 25 µl der oben beschriebenen Substratlösung gestartet. Die Reaktion wurde nach 5 min durch Zugabe von 7,0 ml eiskalter 150 mM KCl gestoppt. Anschließend wurden die Proben mit Hilfe des Brandel Cell Harvesters Typ M-24R über einen Membranfilter der Porengröße 0,8 µm abgesaugt und zweimal mit eiskalter 150 mM KCl nachgewaschen. Die Messung erfolgte am beta-Counter nach 15 h in 10 ml Szintillatorflüssigkeit (Filter Count).

Mäusen (NMRI) = assay: Formalin test in the mouse (second phase); format: in vivo; details: Maus i.p., 21,5 mg/kg
Text: Die Untersuchung zur Bestimmung der antinociceptiven Wirkung der Verbindungen der allgemeinen Formel (I) wird im Formalin-Test an männlichen Mäusen (NMRI, 25 bis 35 g Körpergewicht, Iffa, Credo, Belgien) durchgeführt.
Im Formalin-Test werden gemäß D. Dubuisson et al., Pain 1977, 4, 161-174 die erste (frühe) Phase (0 bis 15 Minuten nach der Formalin-Injektion) und die zweite (späte) Phase (15 bis 60 Minuten nach der Formalin-Injektion) unterschieden. Die frühe Phase stellt als direkte Reaktion auf die Formalin-Injektion ein Modell für Akutschmerz dar, während die späte Phase als Modell für persistierenden (chronischen) Schmerz angesehen wird (T. J. Coderre et al., Pain 1993, 52, 259-285). Die entsprechenden Literaturbeschreibungen werden hiermit als Referenz eingeführt und gelten als Teil der Offenbarung. […]
Anschließend wird für einen Untersuchungszeitraum von drei Minuten in der zweiten (späten) Phase des Formalin-Tests (21 bis 24 Minuten nach der Formalin-Injektion) das nociceptive Verhalten durch Beobachtung der Tiere kontinuierlich erfasst. Die Quantifizierung des Schmerzverhaltens erfolgt durch Summation der Sekunden, in denen die Tiere in dem Untersuchungszeitraum ein Lecken und Beißen der betroffenen Pfote zeigen. […]

Sprague-Dawley Ratten = assay: Neuropathic pain in the rat, Bennett model (chronic constriction injury, cold allodynia); format: in vivo, Ratte
Method: Die Untersuchung auf Wirksamkeit im neuropathischen Schmerz wurde im Bennett-Modell (chronic constriction injury; Bennett und Xie, 1988, Pain 33: 87-107) untersucht.
Sprague-Dawley Ratten mit einem Gewicht von 140-160 g werden unter Nembutal-Narkose mit vier losen Ligaturen des rechten nervus ischiaticus versehen. Die Tiere entwickeln an der vom geschädigten Nerv innervierten Pfote eine Überempfindlichkeit, die nach einer Erholungsphase von einer Woche über etwa vier Wochen mittels einer 4°C kalten Metallplatte quantifiziert wird (Kälte-Allodynie). Die Tiere werden für einen Zeitraum von 2 min. auf dieser Platte beobachtet und die Anzahl der Wegziehreaktionen der geschädigten Pfote wird gemessen. Bezogen auf den Vorwert vor Substanzapplikation wird die Substanzwirkung über einen Zeitraum von einer Stunde an vier Zeitpunkten (15, 30, 45, 60 min. nach Applikation) bestimmt und die resultierend Fläche unter der Kurve (AUD) sowie die Hemmung der Kälte-Allodynie zu den einzelnen Messpunkten in Prozent Wirkung zur Vehikelkontrolle (AUD) bzw. zum Ausgangswert (Einzelmesspunkte) ausgedrückt (%MPE). Die Gruppengröße beträgt n=10, die Signifikanz einer anti-allodynischen Wirkung wird über eine Varianzanalyse (repeated measures ANOVA; * p ≤ 0.05; Armitage und Berry, 1987, Stat. Methods in Medical Research, London: Blackwell Scientific Publications) bestimmt.

NMRI-Mäuse = assay: Phenylquinone-induced writhing test in the mouse; format: in vivo; details: 10 mg/kg
Text: Die Untersuchung der Verbindungen der allgemeinen Formel (I) auf analgetische Wirksamkeit wurde im Phenylchinon-induzierten Writhing an der Maus, modifiziert nach I.C. Hendershot und J. Forsaith (1959) J. Pharmacol. Exp. Ther. 125, 237-240 durchgeführt. Die entsprechende Literaturbeschreibung wird hiermit als Referenz eingeführt und gilt als Teil der Offenbarung.
Dazu wurden männliche NMRI-Mäuse mit einem Gewicht von 25 bis 30 g verwendet. Gruppen von 10 Tieren pro Verbindungsdosis erhielten 10 Minuten nach intravenöser Gabe der zu untersuchenden Verbindungen 0,3 ml/Maus einer 0.02%igen wässrigen Lösung von Phenylchinon (Phenylbenzochinon, Fa. Sigma, Deisenhofen, Deutschland; Herstellung der Lösung unter Zusatz von 5 Gew.-% Ethanol und Aufbewahrung im Wasserbad bei 45°C) intraperitoneal appliziert. Die Tiere wurden einzeln in Beobachtungskäfige gesetzt. Mit Hilfe eines Drucktastenzählers wurde die Anzahl der schmerzinduzierten Streckbewegungen (sogenannte Writhingreaktionen = Durchdrücken des Körpers mit Abstrecken der Hinterextremitäten) 5 bis 20 Minuten nach der Phenylchinon-Gabe ausgezählt. Als Kontrolle wurden Tiere mit geführt, die Vehikellösung (i.v.) und Phenylchinon (i.p.)erhalten hatten. Alle Verbindungen wurden in der Standarddosierung von 10 mg/kg getestet. […]

[2] = compound freshly dissolved from the solid substance, read-out: vGLUT (Ratte), IC50-Fest

Row | Compound | IC50 [1, 2] [nM] | vGLUT (Ratte), Hemmung [%] [1] [%] | IC50 ([1]; read-out: vGLUT (Ratte), IC50) [nM] | further results
1 | 2,2'-(3,3'-Sulfonyl-bis-(4,1-phenylen)-bis-(azanediyl))-bis-(oxomethylen)-bis-(azanediyl)dibenzoesäure [Beispiel 10] | 2350 | 86 |  | 
2 | O=C(Cc1ccccc1)Nc1ccc(Cc2ccc(NC(=O)Cc3ccccc3)c(C(=O)O)c2)cc1C(=O)O [Beispiel 1, 5,5'-Methylen-bis(2-(2-phenylacetamido)benzoesäure)] |  | 61 | 9160 | 
3 | CC(=O)Nc1cc(C(=O)c2ccc(C(=O)O)c(NC(C)=O)c2)ccc1C(=O)O [Beispiel 2, 4,4'-Carbonyl-bis(2-acetamidobenzoesäure)] |  | 47 |  | 
4 | O=C(c1ccc(C(=O)O)c(NC(=O)c2cccc3ccccc23)c1)c1ccc(C(=O)O)c(NC(=O)c2cccc3ccccc23)c1 [Beispiel 3, 4,4'-Carbonyl-bis(2-(1-naphthamido)benzoesäure)] |  | 97 | 380 | 
5 | Nc1ccccc1C(=O)Nc1ccc(-c2ccc(NC(=O)c3ccccc3N)c(C(=O)O)c2)cc1C(=O)O [Beispiel 4, 4,4'-Bis-(2-amino-benzoylamino)-biphenyl-3,3'-dicarbonsäure] | 93 | 99 | 43.2 | 
6 | O=C(O)c1cc(-c2ccc(NC(=O)c3cccc4ccccc34)c(C(=O)O)c2)ccc1NC(=O)c1cccc2ccccc12 [Beispiel 5, 4,4'-Bis-[(naphthalin-1-carbonyl)-amino]-biphenyl-3,3'-dicarbonsäure] |  | 50 |  | 
7 | Nc1ccccc1C(=O)Nc1ccc(-c2ccc(NC(=O)c3ccccc3N)c(C(=O)O)c2)cc1C(=O)O [Beispiel 6, 4,4'-Bis-(2-aminobenzamido)biphenyl-3,3'-dicarbonsäure] | 38 | 101 | 89.7 | 
8 | O=C(O)c1cc(NC(=O)c2cccc3ccccc23)c(C(=O)O)cc1NC(=O)c1cccc2ccccc12 [Beispiel 7, 2,5-Bis-[(naphthalin-1-carbonyl)-amino]-terephthalsäure] |  | 78 | 2340 | 
9 | Cc1ccc(S(=O)(=O)Nc2ccc(-c3ccc(NS(=O)(=O)c4ccc(C)cc4)c(C(=O)O)c3)cc2C(=O)O)cc1 [Beispiel 8, 4,4'-Bis-(4-methylphenylsulfonamid)biphenyl-3,3'-dicarbonsäure, Dinatriumsalz] | 490 | 92 |  | Formalin-Test Maus i.p.; Hemmung [%] (Mäusen (NMRI)): 51%@21,5 mg/kg; Bennett-Test Ratte; Hemmung [%] (Sprague-Dawley Ratten; Ratte, 4,64 mg/kg (i.v.)): 37%@ 4,64 mg/kg (i.v.); Phenylchinon-Writhing-Test Maus i.v. [Anzahl Writhing-Reaktionen in 15 min. p. appl.] (NMRI-Mäuse; Kontrolle 9,1±0,41): 7,8±1,16@10 mg/kg,; Anzahl Tiere mit ≤ 3 Writhing-Reaktionen (NMRI-Mäuse; Maus i.v.): (Anzahl Tiere mit ≤ 3 Writhing-Reaktionen: 1)
10 | Cc1ccc(S(=O)(=O)Nc2ccc(Cc3ccc(NS(=O)(=O)c4ccc(C)cc4)c(C(=O)O)c3)cc2C(=O)O)cc1 [Beispiel 9, 5,5'-Methylen-bis(2-(4-methylphenylsulfonamido)benzoesäure)] |  | 47 |  | 
11 | Cc1ccc(S(=O)(=O)Nc2ccc(-c3ccc(NS(=O)(=O)c4ccc(C)cc4)c(C(=O)O)c3)cc2C(=O)O)cc1 [Beispiel 11, 4,4'-Bis(tolyl-4-sulfonylamino)biphenyl-3,3'-dicarbonsäure] | 1530 | 97 |  | 
12 | O=C(Nc1ccc(-c2ccc(NC(=O)c3ccccc3)c(C(=O)[O-])c2)cc1C(=O)[O-])c1ccccc1.[Na+].[Na+] [Beispiel 12, 4,4'-Bis-(benzamido)-biphenyl-3,3'-dicarbonsäure, Dinatriumsalz] | 39 | 102 |  | Bennett-Test Ratte; Hemmung [%] (Sprague-Dawley Ratten; Ratte, 0,2 mg/kg/5 ml (i.p)): 38%@0,2 mg/kg/5 ml (i.p)
13 | Nc1ccccc1C(=O)Nc1ccc(-c2ccc(NC(=O)c3ccccc3N)c(C(=O)O)c2)cc1C(=O)O [Beispiel 13, 4,4'-Bis-(2-aminobenzamido)biphenyl-3,3'-dicarbonsäure, Dinatriumsalz] | 600 | 96 |  | 
14 | Nc1ccc(-c2ccc(N)c(C(=O)O)c2)cc1C(=O)O [Beispiel 14, 4,4'-Bisaminobiphenyl-3,3'-dicarbonsäure, Dinatriumsalz] | 47800 | 24 |  | 
